Read-outs that look alike come from different tables or passages of the source. Values belong to the compound of their own block, whether it stands above or below them.
Legend:
human TTK = biological target: T1, human TTK (Homo sapiens, UniProt P33981); experiment: TTK inhibition assay (indirect ELISA); type: biochemical
T1 construct: amino terminal GST fusion of full length human TTK; purchased Invitrogen
T1 sequence (P33981 1-857): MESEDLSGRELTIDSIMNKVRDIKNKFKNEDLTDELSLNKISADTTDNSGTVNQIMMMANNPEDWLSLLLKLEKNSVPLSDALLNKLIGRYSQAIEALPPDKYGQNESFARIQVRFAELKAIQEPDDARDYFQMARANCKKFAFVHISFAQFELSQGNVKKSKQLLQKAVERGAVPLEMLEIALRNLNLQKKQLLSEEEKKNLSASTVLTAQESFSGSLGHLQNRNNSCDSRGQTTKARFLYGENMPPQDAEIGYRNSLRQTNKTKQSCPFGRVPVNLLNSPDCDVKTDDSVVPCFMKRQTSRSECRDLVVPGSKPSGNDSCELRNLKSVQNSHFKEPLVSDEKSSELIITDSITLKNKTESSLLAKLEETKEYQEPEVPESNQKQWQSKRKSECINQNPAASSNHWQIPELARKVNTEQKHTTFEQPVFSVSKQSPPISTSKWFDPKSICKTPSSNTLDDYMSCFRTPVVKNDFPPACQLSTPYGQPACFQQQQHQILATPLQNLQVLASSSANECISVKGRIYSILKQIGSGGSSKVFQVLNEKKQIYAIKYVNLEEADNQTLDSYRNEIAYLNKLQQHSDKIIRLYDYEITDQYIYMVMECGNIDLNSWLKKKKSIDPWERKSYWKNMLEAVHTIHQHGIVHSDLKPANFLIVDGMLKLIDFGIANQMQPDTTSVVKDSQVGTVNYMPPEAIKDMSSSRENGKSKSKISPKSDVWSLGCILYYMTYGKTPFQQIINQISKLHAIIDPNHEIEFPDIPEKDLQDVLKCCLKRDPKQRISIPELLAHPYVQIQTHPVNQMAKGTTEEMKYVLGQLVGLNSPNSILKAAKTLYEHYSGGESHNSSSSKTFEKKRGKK

[1] = system: colon cancer cells (HCT116); experiment: Cancer cell line growth inhibition (SRB assay); type: cell-based; settings: read-out: Cancer Cell Line GI50 Range HCT116
TICs (Ovarian 2393A) = experiment: Ovarian tumor-initiating cell growth inhibition (Alamar Blue); type: cell-based; settings: 6 days, read-out: Tumor Initiating Cell GI50 Range Ovarain 2393A
TICs (Colon 12) = experiment: Colon tumor-initiating cell growth inhibition (Alamar Blue); type: cell-based; settings: 9 days, read-out: Tumor Initiating Cell GI50 Range Colon 12
[2] = system: ovarian cancer cells (PA-1); experiment: Cancer cell line growth inhibition (SRB assay); type: cell-based; settings: read-out: Cancer Cell Line GI50 Range PA-1
[3] = Homo sapiens, HCT-116, HCT116 colon cancer cells, SRB assay
[4] = 144 h, ovarian TICs, Alamar Blue

Structure (SMILES): CN1CCC(Nc2ccc(-c3n[nH]c4ccc(NC(=O)C(c5ccsc5)N5CCCC5)cc34)cc2)CC1 (centres unmarked) [Example A25]
IC50 (human TTK; read-out: TTK IC50 Range): < 100 nM
GI50 ([1]; HCT116 colon cancer cells, SRB assay): < 100 nM
GI50 (TICs (Ovarian 2393A); ovarian TICs, Alamar Blue): < 100 nM
GI50 (TICs (Colon 12); colon TICs, Alamar Blue): 100 to 500 nM

Structure (SMILES): COCCN1CCC(Oc2ccc(-c3n[nH]c4ccc(C(=O)N[C@H](c5cccs5)C5CC5)cc34)cc2)CC1 [Example A163]
IC50 (human TTK; read-out: TTK IC50 Range): < 100 nM
GI50 [1, 3]: < 100 nM
GI50 (TICs (Ovarian 2393A); [4]): 100 to 500 nM
GI50 (TICs (Colon 12); 216 h, colon TICs, Alamar Blue): 100 to 500 nM
GI50 ([2]; PA-1 ovarian cancer cells, SRB assay): < 100 nM

Structure (SMILES): CN1[C@@H]2CC[C@H]1C[C@@H](Oc1ccc(-c3n[nH]c4ccc(C(=O)N[C@H](c5ccccn5)C5CC5)cc34)cc1)C2 [Example A213, N-((S)-cyclopropyl(pyridin-2-yl)methyl)-3-(4-(((1R,3R,5S)-8-methyl-8-azabicyclo[3.2.1]octan-3-yl)oxy)phenyl)-1H-indazole-5-carboxamide]
GI50 ([1]; Homo sapiens, HCT-116): < 100 nM
GI50 (TICs (Ovarian 2393A); 144 h, Ovarian 2393A TICs): < 100 nM
GI50 (TICs (Colon 12); 216 h, Colon 12 TICs): > 500 nM
GI50 ([2]; Homo sapiens, PA-1): < 100 nM

Structure (SMILES): O=C(N[C@@H](c1ncccc1Cl)C1CC1)c1ccc2[nH]nc(-c3ccc(OC4CCN(C5COC5)CC4)cc3)c2c1 [Example A215, (R)-N-((3-chloropyridin-2-yl)(cyclopropyl)methyl)-3-(4-((1-(oxetan-3-yl)piperidin-4-yl)oxy)phenyl)-1H-indazole-5-carboxamide]
GI50 ([1]; Homo sapiens, HCT-116): < 100 nM
GI50 (TICs (Ovarian 2393A); 144 h, Ovarian 2393A TICs): 100 to 500 nM
GI50 (TICs (Colon 12); 216 h, Colon 12 TICs): < 100 nM
GI50 ([2]; Homo sapiens, PA-1): < 100 nM

Structure (SMILES): O=C(N[C@H](c1ncccc1Cl)C1CC1)c1ccc2[nH]nc(-c3ccc(OC4CCN(C5COC5)CC4)cc3)c2c1 [Example A216, (S)-N-((3-chloropyridin-2-yl)(cyclopropyl)methyl)-3-(4-((1-(oxetan-3-yl)piperidin-4-yl)oxy)phenyl)-1H-indazole-5-carboxamide]
GI50 ([1]; Homo sapiens, HCT-116): < 100 nM
GI50 (TICs (Ovarian 2393A); 144 h, Ovarian 2393A TICs): < 100 nM
GI50 (TICs (Colon 12); 216 h, Colon 12 TICs): < 100 nM
GI50 ([2]; Homo sapiens, PA-1): < 100 nM

Structure (SMILES): CC(C)C[C@H](NC(=O)c1ccc2[nH]nc(-c3ccc(N4C5CCC4CC(O)C5)cc3)c2c1)c1ccccn1 (stereo partly drawn) [Example A301, 3-(4-((1R,3S,5S)-3-hydroxy-8-azabicyclo[3.2.1]octan-8-yl)phenyl)-N-((S)-3-methyl-1-(pyridin-2-yl)butyl)-1H-indazole-5-carboxamide]
IC50 (human TTK): < 100 nM
GI50 ([1]; Homo sapiens, HCT-116): < 100 nM
GI50 (TICs (Ovarian 2393A); 144 h, Ovarian 2393A TICs): < 100 nM
GI50 (TICs (Colon 12); 216 h, Colon 12 TICs): < 100 nM
GI50 ([2]; Homo sapiens, PA-1): < 100 nM

Structure (SMILES): CN1CCC(Oc2ccc(-c3n[nH]c4ccc(C(=O)NCC5(N6CCOCC6)CCCCC5)cc34)cc2)CC1 [Example A449, 3-(4-((1-methylpiperidin-4-yl)oxy)phenyl)-N-((1-morpholinocyclohexyl)methyl)-1H-indazole-5-carboxamide]
IC50 (human TTK; read-out: TTK IC50 Range): < 100 nM
GI50 [1, 3]: < 100 nM
GI50 (TICs (Ovarian 2393A); [4]): 100 to 500 nM
GI50 (TICs (Colon 12); 216 h, colon TICs, Alamar Blue): < 100 nM

The next lines start with the values.

GI50 ([1]; Homo sapiens, HCT-116): < 100 nM
GI50 (TICs (Ovarian 2393A); 144 h, Ovarian 2393A TICs): < 100 nM
GI50 (TICs (Colon 12); 216 h, Colon 12 TICs): > 500 nM
GI50 ([2]; Homo sapiens, PA-1): < 100 nM
Structure (SMILES): CN1CCC(Oc2ccc(-c3n[nH]c4ccc(C(=O)N[C@H](c5ccccn5)C5CC5)cc34)cc2)CC1 [Example A214, (S)-N-(cyclopropyl(pyridin-2-yl)methyl)-3-(4-((1-methylpiperidin-4-yl)oxy)phenyl)-1H-indazole-5-carboxamide]

IC50 (human TTK; read-out: TTK IC50 Range): < 100 nM
GI50 ([1]; Homo sapiens, HCT-116): < 100 nM
GI50 (TICs (Ovarian 2393A); 144 h, Ovarian 2393A TICs): 100 to 500 nM
GI50 (TICs (Colon 12); 216 h, Colon 12 TICs): 100 to 500 nM
GI50 ([2]; Homo sapiens, PA-1): < 100 nM
Structure (SMILES): CC(C)(O)CN1CCC(Oc2ccc(-c3n[nH]c4ccc(C(=O)N[C@H](c5ccccn5)C5CC5)cc34)cc2)CC1 [Example A217, (S)-N-(cyclopropyl(pyridin-2-yl)methyl)-3-(4-((1-(2-hydroxy-2-methylpropyl)piperidin-4-yl)oxy)phenyl)-1H-indazole-5-carboxamide]

IC50 (human TTK; read-out: TTK IC50 Range): < 100 nM
GI50 ([1]; Homo sapiens, HCT-116): < 100 nM
GI50 (TICs (Ovarian 2393A); 144 h, Ovarian 2393A TICs): 100 to 500 nM
GI50 (TICs (Colon 12); 216 h, Colon 12 TICs): 100 to 500 nM
GI50 ([2]; Homo sapiens, PA-1): < 100 nM
Structure (SMILES): C[C@@H](O)CN1CCC(Oc2ccc(-c3n[nH]c4ccc(C(=O)N[C@H](c5ccccn5)C5CC5)cc34)cc2)CC1 [Example A221, N-((S)-cyclopropyl(pyridin-2-yl)methyl)-3-(4-((1-((R)-2-hydroxypropyl)piperidin-4-yl)oxy)phenyl)-1H-indazole-5-carboxamide]
